Reference: US11147786B2, “Methods of treating chronic dry eye disease using C16:1n7-palmitoleate and derivatives thereof” (Tersus Life Sciences, LLC, priority 2014, dated 2021)
Where “and” joins values, the source holds several entries; their conditions need not be identical. Identical values can stand only once. Entries after “also recorded” stand apart in the source; their conditions may differ.

How the values were obtained:
Assay type in all cases: in vivo, human
[1] = system: patients diagnosed with dry eye disease; experiment: Tear osmolarity in patients with dry eye disease, Example 1
Protocol: (§1) Patients diagnosed with dry eye disease (as determined by having tear osmolarity over 308 mOsms/L, which is the clinical minimum for dry eyes, per eye) were treated daily with a dietary supplement containing 210 mg of C16:1n7-palmitoleate for 30 days.
(§2) Tear osmolarity for left and right eyes were scored at day 1 and day 30, see Table 1. A tear osmolarity score of below 308 mOsms/L is normal, 308-320 mOsms/L is mild dry eyes, 320-340 mOsms/L is moderate dry eyes, and above 340 mOsms/L is severe dry eye. At day 30, patients also ranked their feeling of improvement of dry eye on a scale of 1-10, see Table 1.

[2] = system: patients diagnosed with dry eye disease; experiment: Patient ranking of symptom improvement, Example 1; conditions: patient's ranking at day 30, 210 mg daily; one line per patient 1-8
Protocol: as §1, §2

[3] = system: patients with moderate to severe dry eye symptoms/MGD; experiment: Tear osmolarity (TL) in patients with dry eye symptoms/MGD, Example 2
Protocol: (§3) Twenty nine patients, each diagnosed as having moderate to severe dry eye symptoms/MGD, were selected for the study.
(§4) After the initial baseline evaluation, patients received daily doses of a dietary supplement containing 210 mg of C16:1n7-palmitoleate for over 30 days.
(§5) Tear osmolarity (TL) and MGD for left and right eyes (LE and RE respectively) were scored at Day 0 (baseline evaluation) and at the follow-up visit (FV), see Table 2. A tear osmolarity score of below 308 mOsms/L is normal, 308-320 mOsms/L is mild dry eyes, 320-340 mOsms/L is moderate dry eyes, and above 340 mOsms/L is severe dry eye. The terms ‘above’ and ‘below’ refer to values above and below the detectable range of the Tearlab diagnostic device respectively. Patients also recorded their comments regarding perceived improvements of their dry eye symptoms.

[4] = system: patients with moderate to severe dry eye symptoms/MGD; experiment: Meibomian gland dysfunction (MGD) score, Example 2; design: key to Day 0 MGD RE / Day 0 MGD LE / FV MGD RE / FV MGD LE: 1=meibomian glands in all 3 regions secreting/cloudy; 2=meibomian glands in 2 out of 3 regions secreting/cloudy; 3=meibomian glands in 1 out of 3 regions secreting/cloudy; 4=no observable meibomian gland secretion in any of the 3 regions; 2+ and 2,3 are used interchangeably and mean more than ⅔<1; 2+ and 2,3 are used interchangeably and mean more than ⅔<1
From the text: as §3
Patients were classified as having none, mild, or moderate meibomian gland secretion blockage by evaluating the secretion of the meibomian glands in the nasal, central, and temporal regions of the lower eyelid. MGD was scored using a 0-4 grading scale, 4 correlating with severe dysfunction. A summary of the grading scale is provided below: • 1=meibomian glands in all 3 regions secreting/cloudy • 2=meibomian glands in 2 out of 3 regions secreting/cloudy • 3=meibomian glands in 1 out of 3 regions secreting/cloudy • 4=no observable meibomian gland secretion in any of the 3 regions • 2+ and 2,3 are used interchangeably and mean more than ⅔<1.
as §4, §5

[5] = system: patients with moderate to severe dry eye symptoms/MGD; experiment: Patient comments on perceived improvement of dry eye symptoms, Example 2; conditions: patient's comment after 210 mg daily for over 30 days; one line per patient
Protocol: as §3, §4, §5

## CCCCCC/C=C\CCCCCCCC(=O)O [C16:1n7-palmitoleate]
[1]; Day 1 (start of treatment), left eye, one line per patient 1-8, below 308 normal, 308-320 mild, 320-340 moderate, above 340 severe
  Tear Osmolarity Day 1, left eye: Left eye 294 mOsms/L; also recorded: Left eye 333 mOsms/L; also recorded: Left eye 312 mOsms/L; also recorded: Left eye 351 mOsms/L; also recorded: Left eye 322 mOsms/L; also recorded: Left eye 314 mOsms/L; also recorded: Left eye 347 mOsms/L; also recorded: Left eye 332 mOsms/L
[1]; Day 1 (start of treatment), right eye, one line per patient 1-8
  Tear Osmolarity Day 1, right eye: Right eye 362 mOsms/L; also recorded: Right eye 305 mOsms/L; also recorded: Right eye 340 mOsms/L; also recorded: Right eye 382 mOsms/L; also recorded: Right eye 325 mOsms/L; also recorded: Right eye 341 mOsms/L; also recorded: Right eye 328 mOsms/L; also recorded: Right eye 367 mOsms/L
[1]; Day 30 of daily dietary supplement with 210 mg, left eye, one line per patient 1-8
  Tear Osmolarity Day 30, left eye: Left eye 300 mOsms/L; also recorded: Left eye 302 mOsms/L; also recorded: Left eye 293 mOsms/L; also recorded: Left eye 314 mOsms/L; also recorded: Left eye 301 mOsms/L; also recorded: Left eye 308 mOsms/L; also recorded: Left eye 313 mOsms/L
[1]; Day 30 of daily dietary supplement with 210 mg, right eye, one line per patient 1-8
  Tear Osmolarity Day 30, right eye: Right eye 314 mOsms/L; also recorded: Right eye 300 mOsms/L; also recorded: Right eye 308 mOsms/L; also recorded: Right eye 302 mOsms/L; also recorded: Right eye 299 mOsms/L; also recorded: Right eye 307 mOsms/L; also recorded: Right eye 367 mOsms/L; also recorded: Right eye 310 mOsms/L
[1]; patients 1, 2, 5 and 7, 30 days of treatment
  Dry eye severity after 30 days in patients with at least one severe dry eye initially: normal or very mild dry eyes
[2]
  Symptom Improvement (Scale of 1-10): 4 (2×) and 7 (2×) and 6 (2×) and 8 and 3
[3]; left eye, Day 0 baseline before treatment, one line per patient
  Day 0 TL LE: 311 mOsms/L and 307 mOsms/L (2×) and 349 mOsms/L (2×) and 312 mOsms/L and 314 mOsms/L (3×) and above (2×) and 324 mOsms/L and 339 mOsms/L and 308 mOsms/L and 364 mOsms/L (2×) and 361 mOsms/L and 317 mOsms/L (2×) and 302 mOsms/L and 326 mOsms/L and 356 mOsms/L and 320 mOsms/L and 313 mOsms/L and 358 mOsms/L and 323 mOsms/L and 327 mOsms/L
[3]; left eye, follow-up visit after 210 mg daily for over 30 days, one line per patient
  FV TL LE: 317 mOsms/L and 298 mOsms/L and 303 mOsms/L (2×) and 291 mOsms/L and 310 mOsms/L and 316 mOsms/L and 314 mOsms/L and 299 mOsms/L (2×) and 354 mOsms/L and 352 mOsms/L and 330 mOsms/L and 324 mOsms/L and 331 mOsms/L and 327 mOsms/L and 300 mOsms/L and above and 305 mOsms/L and below (2×) and 308 mOsms/L and 323 mOsms/L and 311 mOsms/L and 306 mOsms/L
[3]; right eye, Day 0 baseline before treatment, one line per patient 1-29, above/below = outside detectable range of Tearlab device
  Day 0 TL RE: 321 mOsms/L and 316 mOsms/L and 357 mOsms/L and 311 mOsms/L and 326 mOsms/L and 329 mOsms/L (2×) and 383 mOsms/L and 335 mOsms/L and below and 330 mOsms/L (2×) and 318 mOsms/L and 337 mOsms/L and 324 mOsms/L and 313 mOsms/L and 290 mOsms/L and 293 mOsms/L and 235 mOsms/L and 348 mOsms/L and 310 mOsms/L and 301 mOsms/L and 322 mOsms/L and 308 mOsms/L and 360 mOsms/L and 303 mOsms/L and 351 mOsms/L
[3]; right eye, follow-up visit after 210 mg daily for over 30 days, one line per patient
  FV TL RE: 284 mOsms/L and 302 mOsms/L (3×) and 301 mOsms/L and 295 mOsms/L and 307 mOsms/L (2×) and 304 mOsms/L and 348 mOsms/L and 354 mOsms/L and 352 mOsms/L and 345 mOsms/L and 309 mOsms/L and 314 mOsms/L and 318 mOsms/L (2×) and 355 mOsms/L and below (2×) and 294 mOsms/L and 303 mOsms/L and 308 mOsms/L and 311 mOsms/L and 235 mOsms/L
[4]; MGD score 0-4 (4 severe), left eye, Day 0 baseline before treatment, one line per patient
  Day 0 MGD LE: 2 (2×) and 4 (14×) and 2+ (2×) and 3 (8×)
[4]; MGD score 0-4 (4 severe), right eye, Day 0 baseline before treatment, one line per patient
  Day 0 MGD RE: 3 (9×) and 4 (14×) and 2+ (2×) and 2
[4]; MGD score 0-4, left eye, follow-up visit after 210 mg daily for over 30 days, one line per patient
  FV MGD LE: 1 (8×) and 3 (6×) and 2 (7×) and 1, and 2+ and 4 (4×) and 0
[4]; MGD score 0-4, right eye, follow-up visit after 210 mg daily for over 30 days, one line per patient
  FV MGD RE: 1 (9×) and 3 (5×) and 2+ and 2 (6×) and 1, and 4 (5×) and 0
[4]; patients 1, 4-7, 11-13, 15-16, 20-22, 24 and 27
  MG secretion in patients with severe MGD scores initially: showed improvement in MG secretion
[5]
  Comment (perceived improvement of dry eye symptoms): great (4×) and good (19×) and poor and Better and happy (2×) and better
